Measurements taken from patent US7276519B2, “Thieno[3,2-b]pyridine-6-carbonitriles and thieno[2,3-b]pyridine-5-carbonitriles as protein kinase inhibitors” (Wyeth, priority 2002, dated 2007).
Several values for one entry are separate records, joined by “and”; a condition that tells them apart may be missing. Identical values can stand only once. Like-named read-outs stand apart in the source and are kept apart here.

Tests used:
[1] = target: T1, Rat2 fibroblasts stably transformed with v-Src/Hu Lck fusion gene (Homo sapiens, UniProt P06239, cells depend on it, form not given); experiment: Anchorage independent Lck-transformed fibroblast proliferation assay; assay type: cell-based, rat
T1 construct: Candidates are e.g. Schmidt-Ruppin A (P00524) or Prague C (P00526); The human Lck catalytic domain stands in place of the v-Src catalytic domain
T1 sequence (P06239 whole entry, change not shown, the tested form may be a part): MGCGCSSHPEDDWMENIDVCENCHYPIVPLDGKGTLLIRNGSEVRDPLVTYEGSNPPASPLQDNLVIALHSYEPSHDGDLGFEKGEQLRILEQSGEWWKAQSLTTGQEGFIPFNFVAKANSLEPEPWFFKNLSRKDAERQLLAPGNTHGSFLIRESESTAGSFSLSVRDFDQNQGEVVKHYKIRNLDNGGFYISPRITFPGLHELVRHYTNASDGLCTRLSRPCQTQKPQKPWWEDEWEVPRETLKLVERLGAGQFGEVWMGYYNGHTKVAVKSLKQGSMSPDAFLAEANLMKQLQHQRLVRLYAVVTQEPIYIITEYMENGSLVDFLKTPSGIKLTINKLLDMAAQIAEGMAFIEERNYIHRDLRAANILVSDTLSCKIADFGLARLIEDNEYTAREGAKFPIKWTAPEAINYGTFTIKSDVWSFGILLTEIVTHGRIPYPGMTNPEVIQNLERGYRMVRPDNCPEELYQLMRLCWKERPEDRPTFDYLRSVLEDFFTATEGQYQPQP
Protocol: Anchorage Independent Lck-Transformed Fibroblast Proliferation Assay
Rat2 fibroblasts stably transformed with a plasmid containing a CMV promotor controlled v-Src/Hu Lck fusion gene in which the catalytic domain of human Lck was inserted in place of the v-Src catalytic domain in the v-Src gene are used for the measurement of src dependent suspension growth. Ultra-low cluster plates (Costar # 3474) are seeded with 10,000 cells per well on Day 1. Compound is added in serial two-fold dilutions from 10 micromolar to 0.009 micromolar on Day 2 and MTS reagent (Promega) is added on Day 5 (100 microliters of MTS/medium mix+100 microliters of medium already on the cells and the absorbance is measured at 490 nm. The results are analyzed as follows to yield an IC50 for proliferation (micromolar units) as follow: % inhibition=(Abs490 nm sample−blank)/(Abs490 nm no cmpd control−blank)×100%. The results obtained for representative compounds of this invention are listed in Table 2. Multiple entries for a given compound indicate that it was tested multiple times.

[2] = test system: Rat2 fibroblasts stably transformed with v-Src/Hu c-Src fusion gene; experiment: Anchorage independent Src-transformed fibroblast proliferation assay; assay type: cell-based, rat; details: for inhibition at 100 µM: Rat2, Table 1, read-out: Src cells % inh at 100 μM
Protocol: Anchorage Independent Src-Transformed Fibroblast Proliferation Assay Rat2 fibroblasts stably transformed with a plasmid containing a CMV promotor controlled v-Src/Hu c-Src fusion gene in which the catalytic domain of human c-Src was inserted in place of the v-Src catalytic domain in the v-Src gene are used for the measurement of src dependent suspension growth. […] Multiple entries for a given compound indicate that it was tested multiple times.

[3] = Table 3, read-out: Lck Cells IC50
[4] = Rattus norvegicus, Rat2, Table 3, read-out: Src Cells IC50 μM or % inhib at 10 μM (IC50 values)
[5] = Table 2, suspension growth, MTS readout Day 5, read-out: Lck cells IC50
[6] = Table 3, read-out: Src Cells IC50 μM or % inhib at 10 μM (IC50 values)
[7] = Rattus norvegicus, Rat2, 120 h, Table 1, suspension growth, MTS readout Day 5, read-out: Src cells IC50

Row | GI50 [1, 3] | melting point [°C] | Molecule | IC50 [2, 4] [µM] | also measured
1 | 1500 nM and 1700 nM | – | COc1cc(Nc2c(C#N)cnc3cc(-c4ccc(C=O)o4)sc23)c(Cl)cc1Cl [Example 67, 7-[(2,4-dichloro-5-methoxyphenyl)amino]-2-(5-formyl-2-furyl)thieno[3,2-b]pyridine-6-carbonitrile] | 3.7 | –
2 | – | 224 to 225 | COc1cc(Nc2c(C#N)cnc3cc(-c4ccc(CN(C)C)cc4)sc23)c(Cl)cc1Cl [Example 62, 7-[(2,4-Dichloro-5-methoxyphenyl)amino]-2-{4-[(dimethylamino)methyl]phenyl}thieno[3,2-b]pyridine-6-carbonitrile] | – | GI50 [1, 5]: 79 nM
3 | 1000 nM and 1850 nM | 190 to 191 | COc1cc(Nc2c(C#N)cnc3cc(C#Cc4cccc(CN(C)C)n4)sc23)c(Cl)cc1Cl [Example 87, 7-[(2,4-dichloro-5-methoxyphenyl)amino]-2-({6-[(dimethylamino)methyl]pyridin-2-yl}ethynyl)thieno[3,2-b]pyridine-6-carbonitrile] | – | –
4 | > 10000 nM | – | COc1cc(Nc2c(C#N)cnc3cc(-c4cnn(CCN5CCOCC5)c4)sc23)c(Cl)cc1Cl [Example 131, 7-[(2,4-dichloro-5-methoxyphenyl)amino]-2-[1-(2-morpholin-4-ylethyl)-1H-pyrazol-4-yl]thieno[3,2-b]pyridine-6-carbonitrile] | – | inhibition at 10 µM ([2]; Rattus norvegicus, Rat2, Table 3, at 10 μM, read-out: Src Cells IC50 μM or % inhib at 10 μM (% values)): 16%; Src Cells IC50 μM or % inhib at 10 μM (% values) ([2]; Table 3, at 10 μM): 17%
5 | 500 nM | – | COc1cc(Nc2c(C#N)cnc3cc(-c4ccc(CN(C)CCCN(C)C)cc4)sc23)c(Cl)cc1Cl [Example 85, 7-[(2,4-dichloro-5-methoxyphenyl)amino]-2-(4-{[[3-(dimethylamino)propyl](methyl)amino]methyl}phenyl)thieno[3,2-b]pyridine-6-carbonitrile] | 3.3 | IC50 [2, 6]: 3.16 µM
6 | > 10000 nM | – | COc1cc(Nc2c(C#N)cnc3cc(C#Cc4cnn(CCN5CCOCC5)c4)sc23)c(Cl)cc1Cl [Example 65, 7-[(2,4-Dichloro-5-methoxyphenyl)amino]-2-{[1-(2-morpholin-4-ylethyl)-1H-pyrazol-4-yl]ethynyl}thieno[3,2-b]pyridine-6-carbonitrile] | 0.7 | –
7 | 1460 nM and 1400 nM | – | COc1cc(Nc2c(C#N)cnc3cc(-c4cn[nH]c4)sc23)c(Cl)cc1Cl [Example 129, 7-[(2,4-dichloro-5-methoxyphenyl)amino]-2-(1 H-pyrazol-4-yl)thieno[3,2-b]pyridine-6-carbonitrile] | 3.23 | IC50 [2, 6]: 2.19 µM
8 | 463 nM and 331 nM and 341 nM | 246 to 249 | COc1cc(Nc2c(C#N)cnc3cc(-c4ccc(C(=O)N(C)C)cc4)sc23)c(Cl)cc1Cl [Example 136, 4-{6-cyano-7-[(2,4-dichloro-5-methoxyphenyl)amino]thieno[3,2-b]pyridin-2-yl}-N,N-dimethylbenzamide] | – | –
9 | – | 244 to 245 | COc1cc(Nc2c(C#N)cnc3cc(-c4ccc(CN5CCOCC5)cc4)sc23)c(Cl)cc1Cl [Example 15, 7-[(2,4-Dichloro-5-methoxyphenyl)amino]-2-[4-(4-morpholinylmethyl)phenyl]thieno[3,2-b]pyridine-6-carbonitrile] | – | GI50 [1, 5]: 350 nM
10 | 938 nM and 804 nM | – | COc1cc(Nc2c(C#N)cnc3cc(C#Cc4cn[nH]c4)sc23)c(Cl)cc1Cl [Example 101, 7-[(2,4-dichloro-5-methoxyphenyl)amino]-2-(1H-pyrazol-4-ylethynyl)thieno[3,2-b]pyridine-6-carbonitrile] | 0.804 | IC50 [2, 6]: 0.81 µM
11 | 525 nM and 576 nM and 951 nM | 195 to 197 | COc1cc(Nc2c(C#N)cnc3cc(-c4ccc(CNCCC(C)C)cc4)sc23)c(Cl)cc1Cl [Example 121, 7-[(2,4-dichloro-5-methoxyphenyl)amino]-2-(4-{[(3-methylbutyl)amino]methyl}phenyl)thieno[3,2-b]pyridine-6-carbonitrile] | – | –
12 | – | 224 to 226 | COc1cc(Nc2c(C#N)cnc3cc(-c4csc(CN5CCN(C)CC5)c4)sc23)c(Cl)cc1Cl [Example 38, 7-[(2,4-Dichloro-5-methoxyphenyl)amino]-2-{5-[(4-methylpiperazin-1-yl)methyl]thien-3-yl}thieno[3,2-b]pyridine-6-carbonitrile] | – | GI50 [1, 5]: 170 nM and 180 nM and 130 nM
13 | > 10000 nM and 5800 nM | – | COc1cc(Nc2c(C#N)cnc3cc(-c4ccn(CCN(C)C)c4)sc23)c(Cl)cc1Cl [Example 125, 7-[(2,4-dichloro-5-methoxyphenyl)amino]-2-{1-[2-(dimethylamino)ethyl]-1H-pyrrol-3-yl}thieno[3,2-b]pyridine-6-carbonitrile] | > 10 | –
14 | 3640 nM and 4070 nM | – | COc1cc(Nc2c(C#N)cnc3cc(C#Cc4cnn(CCO)c4)sc23)c(Cl)cc1Cl [Example 130, 7-[(2,4-dichloro-5-methoxyphenyl)amino]-2-{[1-(2-hydroxyethyl)-1H-pyrazol-4-yl]ethynyl}thieno[3,2-b]pyridine-6-carbonitrile] | 5.59 | IC50 [2, 6]: 3.2 µM
15 | 1500 nM and 1600 nM | – | COc1cc(Nc2c(C#N)cnc3cc(-c4ccc(C=O)s4)sc23)c(Cl)cc1Cl [Example 79, 7-[(2,4-dichloro-5-methoxyphenyl)amino]-2-(5-formylthien-2-yl)thieno[3,2-b]pyridine-6-carbonitrile] | 2.4 | IC50 [2, 6]: 2.8 µM
16 | 112 nM and 96 nM | – | COc1cc(Nc2c(C#N)cnc3cc(-c4ccc(CN(C)C)cn4)sc23)c(Cl)cc1Cl [Example 132, 7-[(2,4-dichloro-5-methoxyphenyl)amino]-2-{5-[(dimethylamino)methyl]pyridin-2-yl}thieno[3,2-b]pyridine-6-carbonitrile] | – | –
17 | – | > 240 | COc1cc(Nc2c(C#N)cnc3sc(-c4ccc(C=O)cc4)cc23)c(Cl)cc1Cl [Example 27, 4-[(2,4-Dichloro-5-methoxyphenyl)amino]-2-(4-formylphenyl)thieno[2,3-b]pyridine-5-carbonitrile] | – | inhibition at 100 µM ([2]; Rattus norvegicus, at 100 μM): 19%; Src cells % inh at 100 μM ([2]; Table 1, at 100 μM): 28%
18 | – | 281 to 282 | COc1cc(Nc2c(C#N)cnc3cc(-c4cc5ccccc5o4)sc23)c(Cl)cc1Cl [Example 24, 2-(1-Benzofuran-2-yl)-7-[(2,4-dichloro-5-methoxyphenyl)amino]thieno[3,2-b]pyridine-6-carbonitrile] | – | IC50 [2, 7]: 3.8 µM
19 | – | 218 to 220 | COc1cc(Nc2c(C#N)cnc3cc(-c4ccc(CN5CCCCC5)cc4)sc23)c(Cl)cc1Cl [Example 18, 7-[(2,4-Dichloro-5-methoxyphenyl)amino]-2-[4-(piperidin-1-ylmethyl)phenyl]thieno[3,2-b]pyridine-6-carbonitrile] | – | IC50 [2, 7]: 1 µM
20 | > 10000 nM | – | COc1cc(Nc2c(C#N)cnc3cc(C#Cc4cncn4C)sc23)c(Cl)cc1Cl [Example 127, 7-[(2,4-dichloro-5-methoxyphenyl)amino]-2-[(1-methyl-1H-imidazol-5-yl)ethynyl]thieno[3,2-b]pyridine-6-carbonitrile] | – | Src Cells IC50 μM or % inhib at 10 μM (% values) ([2]; Table 3, at 10 μM): 0% and 9%
21 | – | > 300 | COc1cc(Nc2c(C#N)cnc3cc(-c4ccc(C(N)=O)cc4)sc23)c(Cl)cc1Cl [Example 20, 4-{6-Cyano-7-[(2,4-dichloro-5-methoxyphenyl)amino]thieno[3,2-b]pyridine-2-yl}benzamide] | – | IC50 [2, 7]: 1 µM
22 | – | 225 to 228 | N#Cc1cnc2cc(-c3ccc(CO)cc3)sc2c1Nc1ccc(Oc2ccccc2)cc1 [Example 46, 2-[4-(Hydroxymethyl)phenyl]-7-[(4-phenoxyphenyl)amino]thieno[3,2-b]pyridine-6-carbonitrile] | – | inhibition at 100 µM ([2]; Rattus norvegicus, at 100 μM): 26%

Row | Molecule | GI50 [1, 3] | melting point [°C] | IC50 [2, 4] [µM] | also measured
23 | 7-[(2,4-dichloro-5-methoxyphenyl)amino]-2-{4-[(4-pyrrolidin-1-ylpiperidin-1-yl)methyl]phenyl}thieno[3,2-b]pyridine-6-carbonitrile [Example 71] | 200 nM and 110 nM | – | – | IC50 [2, 6]: 1.6 µM and 0.9 µM
24 | COc1cc(Nc2c(C#N)cnc3cc(-c4ccc(CN5C[C@H](C)NC[C@H]5C)cc4)sc23)c(Cl)cc1Cl [Example 114, 7-[(2,4-dichloro-5-methoxyphenyl)amino]-2-(4{[(2R,5S)-2,5-dimethylpiperazin-1-I]methyl}phenyl)thieno[3,2-b]pyridine-6-carbonitrile] | 156 nM and 174 nM | – | – | –
25 | COc1cc(Nc2c(C#N)cnc3cc(-c4cc[nH]c4)sc23)c(Cl)cc1Cl [Example 90, 7-[(2,4-dichloro-5-methoxyphenyl)amino]-2-(1H-pyrrol-3-yl)thieno[3,2-b]pyridine-′6-carbonitrile] | 2700 nM and 2400 nM | – | – | IC50 [2, 6]: 2.6 µM and 3.1 µM
